Experimental data reported in US9321796B2, “Galactopyranosyl derivatives useful as medicaments” (Universiteit Gent, priority 2012, dated 2016).
Values belong to the compound of their own block, whether it stands above or below them.

Legend:
[1] = test system: murine iNKT hybridoma N38-2C12; experiment: Co-culture of glycolipid-pulsed BMDC with iNKT cell hybridoma 2C12, IL-2 by ELISA; type: cell-based; conditions: BMDC loaded 20 hours with 100 ng/mL glycolipid, 16 hours co-culture with 2C12 cells
Description: (§1) The murine iNKT hybridoma N38-2C12 (Vα14Vβ8.1/8.2b) was provided by Brown University, Providence, Rhode Island, USA). Cells were cultured in DMEM Sigma) supplemented with 10% fetal calf serum (Invitrogen), 1% glutamine (Sigma), 1% penicillin streptomycin (Sigma), and 2-mercapto-ethanol (Sigma) (hereinafter called cDMEM). B16 melanoma cells were cultured in advanced RPMI (Sigma) supplemented with 10% fetal calf serum (Invitrogen), 1% glutamine (Sigma) and 1% penicillin streptomycin (Sigma). They were harvested using cell dissociation buffer, which was washed away twice first using the medium and second with PBS. 400,000 cells were intravenously (IV) injected within 30 minutes after harvest into the tail vein.
For in vitro stimulation, murine iNKT hybridoma cells at 5·10^4 cells/well in 96-well plates were stimulated with the 10^5 cells/well glycolipid pulsed BMDCs in cDMEM for 4, 16 or 24 hours at […], and levels of murine IL-2 secretion were determined by ELISA.
iNKT cell polarization is a matter of debate and it has been shown uptake by different cells can also affect the outcome. To avoid these host dependent parameters we set up a simple in vitro model, which consists of co-cultures of glycolipid-pulsed bone marrow dendritic cells and an iNKT cell hybridoma (i.c. 2C12 containing a Vβ8.2 TCR). IL-2 production is used as a read-out for TCR affinity for the whole CD1d-glycolipid complex. […] To confirm this we also measured intracellular IL-2 production in 2C12 cells already 4 hours after coculture, where a similar result was obtained (FIG. 2). Because IL-2 production is a downstream event of TCR signaling we analyzed TCRβ expression.
In order to assess the antigenic activity of the triazolyl-containing galactopyranosyl compounds of example 10, bone marrow dendritic cells (BMDC) were loaded during 20 hours with 100 ng/mL glycolipid. After 16 hours of co-culture with 2C12 cells (iNKT cell hybridoma), IL-2 secretion was determined by ELISA.

[2] = test system: collagen-induced arthritis (CIA) and experimental auto-immune encephalomyelitis (EAE); conditions: CIA and EAE in mice; cited from earlier work
[3] = biological target: T1, TCR / mCD1d-glycolipid complex (Mus musculus, UniProt P11609); experiment: Surface plasmon resonance: TCR binding to mCD1d-glycolipid complexes; conditions: SPR, 25° C., Langmuir 1:1 model; read-out: KD
T1 sequence (P11609 19-297): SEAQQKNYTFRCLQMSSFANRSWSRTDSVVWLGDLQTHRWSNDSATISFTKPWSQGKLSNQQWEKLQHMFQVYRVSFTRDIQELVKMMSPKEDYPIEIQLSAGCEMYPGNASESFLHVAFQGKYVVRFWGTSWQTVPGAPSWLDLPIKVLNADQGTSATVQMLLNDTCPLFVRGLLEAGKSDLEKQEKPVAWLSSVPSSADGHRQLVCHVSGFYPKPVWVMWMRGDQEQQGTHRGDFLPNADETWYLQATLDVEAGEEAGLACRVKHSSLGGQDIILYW
T1 sequence (P01887 21-119 partner): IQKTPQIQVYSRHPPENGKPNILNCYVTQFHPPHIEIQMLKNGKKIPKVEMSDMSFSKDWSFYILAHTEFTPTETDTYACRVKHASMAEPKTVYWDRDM
Description: SPR studies were conducted using a Biacore 3000 (Biacore). Glycolipids were dissolved at 1 mg/ml in DMSO and before loading were diluted to 0.25 mg/ml with vehicle solution (50 mM Tris-HCl pH 7.0, 4.8 mg/ml sucrose, 0.5 mg/ml deoxycholate and 0.022% Tween-20), heated for 20 minutes at 80° C. After cooling 1 μg of each lipid was incubated with 10 μg enzymatically biotinylated mCD1d overnight at room temperature. In one embodiment, 400-600 response units (RU) of mCD1d-glycolipid complexes were immobilized onto a CA capture chip (Biacore). A reference surface was generated in another flow channel with unloaded mCD1d immobilized at RU of 500. During the association phase, a series of increasing concentrations of TCR (in 10 mM HEPES, 150 mM NaCl, 3.0 mM EDTA, pH 7.4) in duplicate were injected for 80 seconds and the dissociation phase (running buffer only) was monitored over 45 minutes. Experiments were carried out at 25° C. with a flow rate of 30 μl/min and performed at least two to three times, each time with a different batch of TCR preparation. Kinetic parameters were calculated after subtracting the response to mCD1d molecules in the reference channel, using a simple Langmuir 1:1 model in the BIA evaluation software version 4.1. One representative sensorgram for each lipid is shown. […]

iNKT cells [4] = experiment: In vivo activation of iNKT cells: serum cytokines after intraperitoneal glycolipid injection; design: species or system C57BL/6 mice; conditions: 16 hours after intraperitoneal injection of 5 μg glycolipid
Description: Glycolipids from this invention were synthesized according to the procedure of example 1. α-C-GalCer was kindly provided by Aaron Diamond AIDS Research Center (New York, USA) and the NIH Tetramer Core Facility. Lyophilized glycolipids were dissolved in pure dimethylsulfoxide (DMSO) (Sigma) at a 10 mg/mL concentration and stored at −20° C. Glycolipids were solubilized by adding phosphate buffer saline (PBS) (Invitrogen) or a standard vehicle (96 mg/mL sucrose, 10 mg/mL sodium deoxycholate, 0,05% Tween 20), warming to 80° C. for 20 minutes, and then sonication for 10 minutes.
(§2) For in vivo activation of iNKT cells C57BL/6 mice were either intraperitoneally injected with 5 μg glycolipid (dissolved in PBS) or intravenously with 6·10^5 or 1·10^4 glycolipid pulsed BMDCs.
In order to assess the antigenicity of the carbamate-containing galactopyranosyl compounds of example 1 and their ability to induce Th1-skewing, mice were bled at 16 hours after intraperitoneal glycolipid exposure because this is known to afford peak levels of IFN-y, the hallmark Th1 cytokine. […] IFN-y production in response to glycolipid dependent iNKT cell activation is known to be dependent on IL-12^10-12, which was therefore analyzed.

iNKT cells [5] = experiment: In vivo cytokine secretion after intravenous injection of glycolipid-pulsed BMDC; design: species or system C57BL/6 mice
Description: as §2
(§3) Next we examined if the glycolipid pulsed BMDC behave similarly in vivo. For cytokine analysis we bled the mice at several time points after injection. We focused on IFN-γ and IL-12 secretion.
(§4) In order to determine if the new glycolipids can also mimic the anti-metastatic activity of NU-α-GalCer, we examined them in the B16 lung melanoma model. […] As little as 10,000 pulsed BMDC were enough to exert this marked tumor response. To analyze if these anti-tumor results still correspond to strong cytokine responses mice were bled 16 hours after injection of 10,000 pulsed bone marrow dendritic cells. […] Strikingly, the IL-12 results were not different between the 2 doses in contrast to the IFN-γ production, which was more dose-dependent (FIG. 9). This might indicate that other cytokines such as IL-18, which is also necessary for the induction of IFN-γ by NK cells might play an additional role in iNKT cell dependent Th1 polarization.

B16 melanoma cells = experiment: B16 melanoma lung metastasis model with glycolipid-loaded BMDC; type: in vivo, mice; conditions: 10,000 glycolipid pulsed BMDC
Description: as §1
as §4, with “This might indicate that other cytokines such as IL-18, which is also necessary for the induction of IFN-γ by NK cells might play an additional role in iNKT cell dependent Th1 polarization.” left out

[6] = test system: spleen DCs (CD11c CD11b double positive); experiment: Co-stimulatory molecule expression on spleen dendritic cells after glycolipid-pulsed BMDC; type: in vivo, C57/BL6 mice; conditions: 600000 glycolipid-pulsed BMDC
Text: Spleen cells were isolated. Lymphocytes were isolated at the interface and washed, depleted with an anti-CD3 kit (Miltenyi Biotec, Sunnyvale, […]) and re-suspended in a staining buffer containing saturating amount of anti-Fcy Receptor type II/type III monoclonal antibodies (Miltenyi). Hereafter cells were stained with fluorochrome-conjugated mAbs (all from Bioscience) directed against the described antigens. Live cells (exclusion with DAPI) were acquired on a FACSCanto (BD) flow cytometer and analyzed using FlowJo (Tree Star) software.
Expression of co-stimulatory markers at the cell surface is linked to cytokine polarization because this determines the degree of activation of by-stander cells such as NK cells, whose IFN-y production is responsible for Th1 polarized cytokine profile. For α-C-GalCer, it has been shown that expression of CD40 is essential for IL-12 and subsequent NK cell dependent IFN-γ production. In contrast, OCH, a Th2 polarizing antigen, is not able to induce CD40 expression at the surface of DCs. Additionally OX40L up-regulation by dendritic cells (DC) has been found important for α-GalCer dependent tumour killing.
Glycolipid stimulation of iNKT cells leads to CD28 expression, and induces CD80 and CD86 expression at the dendritic cell surface, which is required for induction of IL-12 by dendritic cells. […]

human iNKT cells = experiment: Cytokine secretion in cultures of purified human iNKT cells; type: cell-based; conditions: glycolipid 100 ng/ml pulsed PBMCs, 24 hours
Description: Human iNKT cells from healthy adult individuals were sorted and expanded. PBMCs were isolated by means of density centrifugation, incubated overnight in the presence of indicated glycolipids (100 ng/ml), washed and irradiated (40 Gy). Subsequently, 5×10^4 iNKT cells were stimulated with 10^5 glycolipid pulsed autologous PBMCs in RPMI 1640 media supplemented with 10% human AB serum (Lonza), 1% sodium pyruvate, 1% nonessential amino acids and 1% penicillin/streptomycin (all from Invitrogen). Supernatants were collected after 24 hours of culture and cytokine levels were determined by means of cytometric Bead Arrays (CBA) following the manufacturer's instructions (BD).
as §3

[7] = 16 hours after injection of 10,000 pulsed BMDC

Compound: (2S,3S,4R)-1-O-(6-deoxy-6-(4-butyltriazol-1-yl)-α-D-galactopyranosyl)-2-hexacosylamino-octadecane-1,3,4-triol [Compound 44]
IL-2 secretion [1]: tend to induce the highest IL-2 secretion

Compound: (2S,3S,4R)-1-O-(6-deoxy-6-(4-phenyltriazol-1-yl)-α-D-galactopyranosyl)-2-hexacosylamino-octadecane-1,3,4-triol [Compound 45]
IL-2 secretion [1]: tend to induce the highest IL-2 secretion

Compound: CCCCCCCCCCCCCCCCCCCCCCCC(=O)N[C@@H](COC1OC(CO)C(O)C(O)C1O)[C@H](O)[C@H](O)CCCCC (some centres unmarked) [OCH]
effect on Th1-mediated auto-immune diseases [2]: protective effect

Compound: (2S,3S,4R)-1-O-(6-deoxy-6-(triazol-1-yl)-α-D-galactopyranosyl)-2-hexacosylamino-octadecane-1,3,4-triol [non-substituted triazolyl compound]
IL-2 secretion [1]: even better in stimulating iNKT cells to release IL-2

Kd [3]: 33 nM
Compound: CCCCCCCCCCCCCCCCCCCCCCCCCC(=O)NC(COC1OC(COC(=O)Nc2ccncc2)C(O)C(O)C1O)C(O)C(O)CCCCCCCCCCCCCC [PyrC-α-GalCer, (2S,3S,4R)-1-O-(6-O-(4pyridinylcarbamoyl)-α-D-galactopyranosyl)-2-hexa-cosylamino-octadecane-1,3,4-triol]
IL-12 production (iNKT cells [4]): significantly higher IL-12 levels than NU-α-GalCer
IFN-γ production (iNKT cells [5]; [7]): significantly higher
IL-12 production (iNKT cells [5]; [7]): significantly higher
IL-12 secretion after 24 hours (iNKT cells [5]; 24 hours after injection of glycolipid pulsed BMDC): markedly higher than for NU-α-GalCer
IL-12 secretion (iNKT cells [5]; after injection of glycolipid pulsed BMDC): very high
IFN-γ level time course (iNKT cells [5]; several time points after injection of glycolipid pulsed BMDC): increased up to 24 hours after injection
prevention of tumor metastasis (lung nodules) (B16 melanoma cells): still better in preventing tumor metastasis
CD40 up-regulation on spleen DCs [6]: induces early CD40 up-regulation
Th1-biased cytokine secretion (more IFN-γ and IL-12 and less IL-4 and IL-13 compared to α-GalCer) (human iNKT cells): able to induce Th1-biased cytokine secretion
